Among the data in ChEMBL document CHEMBL3808380, “Discovery of a novel covalent non-β-lactam inhibitor of the metallo-β-lactamase NDM-1” (Bioorg Med Chem, 2016) are Activity, inhibition and Ki values, retold here.

The test system of experiment [1] is Klebsiella pneumoniae. Briefly: Binding affinity to Klebsiella pneumoniae 6xHis-tagged metallo-beta-lactamase NDM-1 K224A mutant expressed in Escherichia coli BL21 (DE3)pLysS at 1.5 mM after 3 hrs by ESI-MS analysis.
For experiment [2], the system named is Klebsiella pneumoniae. As to the kind of experiment: Inhibition of Klebsiella pneumoniae 6xHis-tagged metallo-beta-lactamase NDM-1 K224A mutant expressed in Escherichia coli BL21 (DE3)pLysS assessed as hydrolysis of imipenem up to 750 uM after 20 mins.
The target of experiment [3] is T1, Metallo-beta-lactamase type 2 (Klebsiella pneumoniae, UniProt C7C422). As to the kind of experiment: Time-dependent inhibition of wild type Klebsiella pneumoniae 6xHis-tagged metallo-beta-lactamase NDM-1 expressed in Escherichia coli BL21 (DE3)pLysS assessed as inhibition constant for initial non-covalant complex.
T1 sequence (C7C422 whole entry): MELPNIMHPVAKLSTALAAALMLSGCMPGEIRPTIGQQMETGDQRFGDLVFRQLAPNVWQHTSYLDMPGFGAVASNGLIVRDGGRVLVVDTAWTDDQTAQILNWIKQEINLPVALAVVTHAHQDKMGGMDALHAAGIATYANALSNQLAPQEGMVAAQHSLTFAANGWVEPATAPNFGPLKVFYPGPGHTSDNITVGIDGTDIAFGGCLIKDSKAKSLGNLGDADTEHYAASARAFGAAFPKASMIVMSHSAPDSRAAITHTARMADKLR
The target in experiment [4] is T1, Metallo-beta-lactamase type 2. As to the kind of experiment: Time-dependent inhibition of wild type Klebsiella pneumoniae 6xHis-tagged metallo-beta-lactamase NDM-1 expressed in Escherichia coli BL21 (DE3)pLysS.
Experiment [5] can be described thus: Inhibition of beta-lactamase VIM-2 (unknown origin).
Experiment [6] addresses Metallo-beta-lactamase type 2 (Klebsiella pneumoniae) (UniProt C7C422). The settings on record: 200 uM.
Experiment [7] shares this target. To be noted: 2 uM.

Activity calls are given as the source filed them. The rule behind the calls is not given here.

Chain of Metallo-beta-lactamase type 2 (Klebsiella pneumoniae) (C7C422 whole entry): as above

Turning to `O=Cc1coc2ccccc2c1=O`, the result in the experiment on Klebsiella pneumoniae [1] was inactive. The inhibition entry (with Klebsiella pneumoniae [2]; in experiment [5]) was “inactive” each time. The Ki in experiment [3] was determined as 76 µM; in experiment [4], 0.58 µM. The inhibition result in experiment [6] and in experiment [7] was “tde” throughout.
